Experimental data: US10226409B2, “Pyruvate and related α-keto carboxylates as novel adjuvants in the treatment of post tooth whitening sensitivity and the tissue protective effect of pyruvate on the oral soft tissue” (priority 2016, dated 2019)

How the values were obtained:
[1] = In-office laser tooth whitening, desensitizer applied post treatment: tooth sensitivity; format: in vivo, human; conditions: for duration of tooth sensitivity: confirmed by follow up phone calls; for subjects experiencing tooth sensitivity after application of the desensitizer: 5 subjects per group
Source text: In-office laser tooth whitening procedure using Biolase EZ lase, 7W diode laser, and the LaserWhite *20 whitening gel kit.
A total of 15 candidates were selected and screened (for the presence of active decay, faulty restorations, cervical abrasion and attrition, enamel cracks) for the whitening procedure.
The arch has been divided in 4 quadrants, K1 (upper right), K2 (upper left), K3 (lower left), K4 (lower right).
The amount of 400 Jules has been applied per quadrant per application, in two separate applications. (total of 800 Jules per quadrant).
The candidates were assigned to 3 groups.
Group 1 is considered the control (C1), receiving desensitizer (post treatment) containing potassium nitrate.
Group 2, a second control group (C2), received as desensitizer (post treatment) stannous fluoride.
Group 3 (C3) received as desensitizer sodium pyruvate 99% in crystalline form. (applied over the gingival, gingival margin and DEJ).

[2] = cited from earlier work
[3] = test system: mammalian cellular systems; conditions: applied exogenously in concentrations up to about 10 mM, short term studies; cited from earlier work
[4] = test system: human and bovine endothelial cells; conditions: cited from earlier work
[5] = test system: isolated liver mitochondria; conditions: 1 mM pyruvate; cited from earlier work
[6] = test system: isolated cardiomyocytes; conditions: 1-10 millimolar; cited from earlier work
[7] = test system: oxidative stress; conditions: cited from earlier work
[8] = intracoronary; cited from earlier work
[9] = cardioplegia; cited from earlier work
[10] = Gingival lesions after tooth whitening, treated only with sodium pyruvate; format: in vivo, human
Source text: In addition, overall 6 patients presented with gingival lesions, manifested by burning sensation on the gingival margin, and visually expressed by white areas on the gingival margin.

[11] = R. Bünger et al., unpublished observations; cited from earlier work

## O=[N+]([O-])[O-].[K+] [potassium nitrate]
[1]
  duration of tooth sensitivity: up to 24 hours
[1]; end of whitening procedure
  subjects experiencing tooth sensitivity after application of the desensitizer: 3 out of 5

## CC(=O)C(=O)O [pyruvate]
[2]; pH 7.4, 37° C.
  rate constant of scavenging of peroxynitrite: 88 to 100 mol⁻¹ s⁻¹
[2]; physiological pyruvate anion
  reaction with peroxynitrite faster than with H2O2: about 40 times
[2]; pyruvate decarboxylates to acetate
  speed of reaction with peroxynitrite relative to that with H2O2: about one order of magnitude faster
[3]
  cytotoxicity: virtually no or little cytotoxicity
[4]; 30 min pulse of 0.5 mM H2O2
  bc1-2/bax ratio: increasing the bc1-2/bax ratio
  cellular glutathione pool: stabilizing the cellular glutathione pool
  cellular viability and survival: dose-dependently enhanced cellular viability and survival
[4]; H2O2-treated endothelial cells
  phosphorylated p38 mitogen activated kinase: prevented the accumulation of phosphorylated p38 mitogen activated kinase
  phosphorylation of ERK1/2: transiently increased phosphorylation of ERK1/2
[5]
  dissociation of cytochrome C: prevented the dissociation of cytochrome C
  expression of antiapoptotic bc1-2: enhanced expression of antiapoptotic bc1-2
  mitochondrial respiration: stabilized respiration
[6]
  calcium transients: improves the calcium transients
  cytotoxicity: without apparent cytotoxicity
  mitochondrial stability and mitochondrial Δϕ: increases mitochondrial stability and mitochondrial Δϕ
[7]
  pyruvate level of optimum efficacy: 2 to 5 mM
  pyruvate level required for beneficial effects: ≥ 0.5 mM
[8]
  efficacy: beneficial efficacy
  toxicity: no obvious toxicity
[9]
  mortality and morbidity: reduced mortality and morbidity

## [13CH3][13C](=O)C(=O)[O-].[Na+] [sodium pyruvate, α-Ketopropionic acid-2,3-13C2 sodium salt]
[1]
  duration of tooth sensitivity: ≤ 24 h
[1]; end of whitening procedure
  subjects experiencing tooth sensitivity after application of the desensitizer: 1 of 5
[10]; 6 patients with gingival lesions, treated only with sodium pyruvate
  burning sensation on the gingival margin: immediate relieve of the burning sensation
[10]; previously discolored (white) site on the gingival margin
  visual inspection of the gingiva: normal appearance of the gingiva
[11]
  stability: relative stability
  water solubility: high water solubility

## [F][Sn][F] [stannous fluoride]
[1]
  duration of tooth sensitivity: over 24 hours
[1]; end of whitening procedure
  members of the group experiencing tooth sensitivity: 100%
